Assay results as given in patent US20090111781A1, “Use of Cymipristone Type Compounds in Aids Treatment” (SHANGHAI THREE-ALLIANCE BIOTECHNOLOGIES CO., LTD., priority 2005, published 2009).

Experiments:
estrogen receptor ERβ = estrogen receptor ERβ (Homo sapiens, UniProt Q92731); assay: Binding activity on human nuclear receptor ERβ; conditions: mean ± SD, n = 4
Experimental: (§1) Buffer solution is composed of 25 mM NaPO4, 20 mM NaMoO4, 10 mM KF and 10% glycerol (pH=7.3) and stored under 4° C. Stock solution is prepared with CHAPS and DTT and stored under −20° C. […] Add 2.5 μl/hole into 96-pore plate. Take out appropriate amount of buffer solution reserve into solution to make the final concentration of CHAPS and DDT to become 0.25 mM and 2 mM respectively. Add protease inhibitors (aprotinin and leupeptin) to make its final concentration to become 1 μg/μl, and place in an ice bath. After adding human nuclear receptor GR (1:8), PR (1:100), ER (1:2000), AR (1:200) and MR (1:40) into the reaction system respectively, adequately mix suitable quantity of [^3H]-dexamethasone, [^3H]-progesterone, [^3H]-estradiol and [^3H]-DHT (from Amersham), rapidly add into 96-pore plate (100 μl/pore) and incubate overnight under 4° C. On the next day, add 25 μl of hydroxyapatite suspension into each pore and mix with shaking. After incubating for 10 min, separate by centrifuge for 3 min at 2500 rpm. The precipitate is washed with 100 μl of buffer solution and separated by centrifuge twice. Add 150 μl of scintillation solution (from Perkin Elmer) into each pore, mix with shaking and count by MicroBeta counter.

[1] = molecular target: T1, glucocorticoid receptor of rat hepatic cytoplasm (Rattus norvegicus, UniProt P06536); assay: Competition inhibition of [3H]-dexamethasone binding in rat hepatic cytoplasm
T1 construct: centrifuge at 175000 g for 1 hour, and take out the supernatant liquid as reserve; from tissue; host or cells: liver cytosol (175000 g supernatant) of adrenalectomised female SD rats
T1 sequence (P06536 1-795): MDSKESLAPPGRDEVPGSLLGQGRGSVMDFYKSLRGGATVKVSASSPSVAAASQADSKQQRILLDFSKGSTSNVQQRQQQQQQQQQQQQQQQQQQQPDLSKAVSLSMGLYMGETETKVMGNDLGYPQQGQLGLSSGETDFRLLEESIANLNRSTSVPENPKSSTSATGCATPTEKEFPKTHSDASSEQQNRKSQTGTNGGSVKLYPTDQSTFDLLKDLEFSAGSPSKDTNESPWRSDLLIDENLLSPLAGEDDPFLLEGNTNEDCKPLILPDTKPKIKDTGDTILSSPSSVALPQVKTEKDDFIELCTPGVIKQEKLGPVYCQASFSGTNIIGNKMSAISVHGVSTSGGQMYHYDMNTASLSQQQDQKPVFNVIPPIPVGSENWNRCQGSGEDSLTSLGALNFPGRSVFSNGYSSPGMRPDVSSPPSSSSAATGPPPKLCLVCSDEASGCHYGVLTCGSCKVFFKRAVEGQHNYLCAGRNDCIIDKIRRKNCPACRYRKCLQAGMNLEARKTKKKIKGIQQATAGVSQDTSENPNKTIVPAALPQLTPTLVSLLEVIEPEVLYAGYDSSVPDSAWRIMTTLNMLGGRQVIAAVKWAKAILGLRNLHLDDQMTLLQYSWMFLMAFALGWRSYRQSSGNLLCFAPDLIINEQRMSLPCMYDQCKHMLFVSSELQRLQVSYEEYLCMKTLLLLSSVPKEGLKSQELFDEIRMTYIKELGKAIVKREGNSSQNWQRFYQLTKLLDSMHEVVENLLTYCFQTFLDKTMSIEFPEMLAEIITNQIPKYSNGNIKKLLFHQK
Experimental: Clean female SD rats, body weight 200-250 g, are fed with certain quantity of food and freely drink water. The temperature is controlled at about 24° C. and an illumination cycle are for 11 hours by day and 13 hours at night. All animals are observed for 1 week before experiment. Incisions are made on two sides below arch of ribs on dorsal position of rats to extirpate adrenal glands. After operation, the rats are fed with physiological saline to maintain water-electrolyte balance. On the third day after operation, animals are acutely executed. The liver is taken out immediately and placed in ice cold buffer solution; the blood should be washed off as much as possible. Take certain quantity of tissue, add buffer solution (1:4), cut the tissue with scissors, intermittently homogenize the tissue under low temperature, centrifuge at 175000 g for 1 hour, and take out the supernatant liquid as reserve. […] Then carry out the competition inhibition experiment.

[2] = molecular target: T2, mineralocorticoid receptor (MR) (Homo sapiens, UniProt P08235); assay: Binding activity on human nuclear receptor MR; conditions: n = 4
T2 sequence (P08235 1-984): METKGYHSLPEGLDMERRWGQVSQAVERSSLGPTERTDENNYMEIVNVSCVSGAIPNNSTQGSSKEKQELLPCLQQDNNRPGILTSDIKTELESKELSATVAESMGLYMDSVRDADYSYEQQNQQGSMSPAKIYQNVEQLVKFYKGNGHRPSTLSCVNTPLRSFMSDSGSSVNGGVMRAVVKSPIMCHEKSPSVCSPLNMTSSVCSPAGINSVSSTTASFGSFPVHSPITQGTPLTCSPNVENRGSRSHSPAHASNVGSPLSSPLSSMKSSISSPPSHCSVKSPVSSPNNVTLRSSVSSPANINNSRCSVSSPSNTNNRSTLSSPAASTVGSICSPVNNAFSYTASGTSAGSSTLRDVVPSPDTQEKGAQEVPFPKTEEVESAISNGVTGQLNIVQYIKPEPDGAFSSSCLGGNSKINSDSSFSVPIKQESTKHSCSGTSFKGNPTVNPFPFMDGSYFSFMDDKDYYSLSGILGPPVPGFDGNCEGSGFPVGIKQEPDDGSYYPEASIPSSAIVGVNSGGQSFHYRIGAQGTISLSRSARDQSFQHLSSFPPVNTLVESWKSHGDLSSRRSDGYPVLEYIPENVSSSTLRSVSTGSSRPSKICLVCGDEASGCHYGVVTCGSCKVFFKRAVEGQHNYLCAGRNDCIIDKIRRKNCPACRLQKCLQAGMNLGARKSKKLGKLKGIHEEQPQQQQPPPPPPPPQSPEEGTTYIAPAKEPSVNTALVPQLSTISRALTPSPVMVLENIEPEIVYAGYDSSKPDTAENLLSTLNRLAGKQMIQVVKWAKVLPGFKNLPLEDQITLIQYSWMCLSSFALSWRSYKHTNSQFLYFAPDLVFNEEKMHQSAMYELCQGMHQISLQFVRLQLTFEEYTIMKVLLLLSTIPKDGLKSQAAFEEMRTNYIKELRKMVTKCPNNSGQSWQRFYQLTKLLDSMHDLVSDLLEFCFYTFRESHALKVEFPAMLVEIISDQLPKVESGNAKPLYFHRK
Experimental: as §1

Sequence of estrogen receptor ERβ (Q92731 whole entry): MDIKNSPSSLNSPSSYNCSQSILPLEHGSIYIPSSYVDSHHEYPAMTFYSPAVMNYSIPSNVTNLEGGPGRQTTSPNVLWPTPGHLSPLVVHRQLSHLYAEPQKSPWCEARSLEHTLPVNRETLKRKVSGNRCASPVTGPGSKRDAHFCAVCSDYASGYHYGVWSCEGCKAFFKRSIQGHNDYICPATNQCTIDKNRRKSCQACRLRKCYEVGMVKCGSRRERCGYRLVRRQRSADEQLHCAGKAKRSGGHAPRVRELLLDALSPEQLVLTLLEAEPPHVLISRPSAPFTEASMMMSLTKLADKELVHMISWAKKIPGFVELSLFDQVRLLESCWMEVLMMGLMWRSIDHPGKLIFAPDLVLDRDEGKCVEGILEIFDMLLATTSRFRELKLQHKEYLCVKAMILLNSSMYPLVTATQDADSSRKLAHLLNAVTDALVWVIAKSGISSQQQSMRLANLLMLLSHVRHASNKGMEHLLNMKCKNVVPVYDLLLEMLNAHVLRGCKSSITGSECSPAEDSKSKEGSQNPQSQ

CC#C[C@]1(O)CC[C@H]2[C@@H]3CCC4=CC(=O)CCC4=C3[C@@H](c3ccc(N(C)C4CCCCC4)cc3)C[C@@]21C [Cymipristone, 11β-[4-(N-methyl-N-cyclohexylamino)phenyl]-17α-(1-propynyl)-17β-hydroxyl-4,9-estradiene-3-one]
IC50 (estrogen receptor ERβ): 278.7 ± 0.63 nM | IC50 ratio ([1]; cymipristone : mifepristone): 1.00 | RBA ratio ([1]; dexamethasone : cymipristone : mifepristone): 5.6 | Relative binding activity RBA ([1]; dexamethasone as 100, mean ± SD, n = 4): 557.69 ± 65.23% | IC50 ([1]; mean ± SD, n = 4): 2.6 nM | inhibition at 0.1 µM ([1]; tested compound 1 × 10^−7 mol/L, mean ± SD, n = 4, read-out: Inhibition rate on binding of [3H]-dexamethasone): 88.9 ± 9.01% | inhibition at 0.02 µM ([1]; tested compound 2 × 10^−8 mol/L, mean ± SD, n = 4, read-out: Inhibition rate on binding of [3H]-dexamethasone): 75.6 ± 3.56% | inhibition at 0.004 µM ([1]; tested compound 4 × 10^−9 mol/L, mean ± SD, n = 4, read-out: Inhibition rate on binding of [3H]-dexamethasone): 54.5 ± 4.24% | inhibition at 0.5 µM ([1]; tested compound 5 × 10^−7 mol/L, mean ± SD, n = 4, read-out: Inhibition rate on binding of [3H]-dexamethasone): 95.4 ± 5.34% | inhibition at 0.0008 µM ([1]; tested compound 8 × 10^−10 mol/L, mean ± SD, n = 4, read-out: Inhibition rate on binding of [3H]-dexamethasone): 31.2 ± 3.87% | inhibition at 0.0016 µM ([1]; tested compound 16 × 10^−10 mol/L, mean ± SD, n = 4, read-out: Inhibition rate on binding of [3H]-dexamethasone): 17.2 ± 6.76% | IC50 [2]: > 2000 nM
